In patent US20230365577A1, “Photodynamic Therapy and Diagnosis” (RMW CHO Group Limited, priority 2020, published 2023):
Read-outs that look alike come from different tables or passages of the source.

Key:
[1] = test system: SKOV3 ovarian cancer cells; experiment: Phototoxicity in SKOV3 cells (652 nm laser, AlamarBlue viability); type: cell-based, Human; conditions: for IC90: Homo sapiens, SK-OV-3, light or radiation study
Method in brief: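 SKOV3 cells were loaded for 24 h with photosensitizer (0–10 μM in DMSO) in medium containing 10% Kollidon-12. After a media change they were irradiated at 652 nm, 50 mW/cm^2 for 5 min (15 J/cm^2), cultured a further 24 h, and viability was read by AlamarBlue in quadruplicate. Phototoxicity IC90 and dark-toxicity IC10 came from variable-slope normalized dose–response fits.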

MDA-MB-468 = experiment: Phototoxicity, pan-cancer panel; type: cell-based; conditions: Homo sapiens, light or radiation study; MDA-MB-468, breast adenocarcinoma (triple negative)
Description: (§1) To test for phototoxicity, cells incubated with phyllochlorin analogues (0-10 μM in DMSO) had culture media replaced after 24 hours (as above) and were then exposed to a 652 nm laser (Invion) with laser density at 50 mW/cm^2 for 5 mins (total 15 J/cm^2). Following activation, cells were cultured for a further 24 hours. Media was then replaced with fresh media containing AlamarBlue, and % viable cells remaining assessed as above. Controls included cells treated with phyllochlorin analogues but not activated by laser light; cells without phyllochlorin analogue treatment but with laser light; and untreated controls. All measurements were made in quadruplicate.
(§2) The activity of phyllochlorin analogues against multiple cancer cell types was assessed as above, using compounds 3 and 6 as examples.

LP9 = experiment: Phototoxicity, pan-cancer panel; type: cell-based; conditions: light or radiation study; LP9, immortalised mesothelial cells
Description: as §1, §2

B16F10 = experiment: Phototoxicity, pan-cancer panel; type: cell-based; conditions: Mus musculus, B16-F10, light or radiation study; B16F10, melanoma
Description: as §1, §2

A549 = experiment: Phototoxicity, pan-cancer panel; type: cell-based; conditions: Homo sapiens, light or radiation study; A549, lung adenocarcinoma
Description: as §1, §2

DLD-1 = experiment: Phototoxicity, pan-cancer panel; type: cell-based; conditions: Homo sapiens, light or radiation study; DLD-1, colorectal adenocarcinoma
Description: as §1, §2

[2] = test system: ID8 murine ovarian cancer cells; experiment: Tumour localisation and retention, model 2 (intraperitoneal ID8 metastatic disease); type: in vivo, C57BL/6 wild type mice
Description: Model 2 used C57BL/6 wild type mice implanted intraperitoneally with 1×10^6 ID8 murine ovarian cancer cells. Following a 4 week incubation (at which point metastatic peritoneal disease with macroscopically visible tumour deposits was established), mice received compound 6 by either oral gavage (ORAL: 2.5 mg/kg), intravenous injection (IV: 1.0 mg/kg), or intraperitoneal injection (IP: 1.0 mg/kg). Quantitative imaging was performed as above; however, due to the disseminated nature of ovarian cancer, imaging was performed at autopsy, using blue light (400 nm) illumination to visualise red fluorescence associated with compound 6 in tumour deposits.

## C=Cc1c(C)c2cc3nc(c(C)c4cc(C)c(cc5nc(cc1[nH]2)C(C)=C5CC)[nH]4)[C@@H](CCC(=O)N(C)CCCS[C@@H]1O[C@H](CO)[C@@H](O)[C@H](O)[C@H]1O)[C@@H]3C [Compound 6, 3-((7S,8S)-18-ethyl-2,5,8,12,17-pentamethyl-13-vinyl-7H,8H-porphyrin-7-yl)-N-methyl-N-(3-(((2S,3R,4S,5S,6R)-3,4,5-trihydroxy-6-(hydroxymethyl)tetrahydro-2H-pyran-2-yl)thio)propyl)propanamide]
[1]; SKOV3, ovarian clear cell (Table 2), read-out: Phototoxicity IC90
  IC90: 0.19 µM
[1]; SKOV3, 24 h uptake, 652 nm laser 50 mW/cm2 5 mins (15 J/cm2), viability 24 h later, read-out: Cellular Toxicity: Phototoxicity IC90
  IC90: 0.06 µM
[1]; SKOV3, read-out: Phototoxicity apparent IC90
  IC90: < 0.1 µM
[1]; SKOV3, IC90
  Fold increase in cellular phototoxicity compared to compound 2: approximately 4 fold
MDA-MB-468
  IC90: 0.07 µM
LP9
  IC90: 0.03 µM
B16F10
  IC90: 0.64 µM
A549
  IC90: 0.14 µM
DLD-1
  IC90: 0.33 µM
[2]; IP 1.0 mg/kg
  Localisation into metastatic nodules: rapid and highly selective localisation
[2]; IV 1.0 mg/kg
  Retention in tumour following injection: at least 24 hours
  Time of peak tumour distribution: 4 h
